Experimental data reported in patent US9718823B2, “2, 6-Di-nitrogen-containing substituted purine derivative, and preparation method, pharmaceutical composition and use thereof” (Zhejiang Medicine Co., Ltd. Xinchang Pharmaceutical Factory, priority 2013, dated 2017).

What was measured:
[1] = tested on: PC-3 cell Akt (Ser473) phosphorylation; assay: Inhibition of phosphorylation level of PC-3 cell Akt (Ser473), Cisbio HTRF phospho Akt (Ser473) cell-based assay; parameters: species or system human; conditions: Homo sapiens, PC-3, PC-3 cells, hEGF 100 ng/ml stimulation; 1st and 2nd test where printed
Experimental: The inhibitory activity of the compounds of present invention to the phosphorylation level of PC-3 cell Akt (Ser473) is studied by using Cisbio HTRF phospho Akt (Ser473) cell-based assay test kit.
Cell strain: PC-3 prostate cancer cells line (cell bank of Chinese Academy of Sciences) is cultured by using culture medium (F12K+10% FBS).
hEGF is prepared as stock solution of 100 ug/ml with 10 mM acetic acid, and the stock solution is diluted to 200 ng/ml with serum-free medium, added 50 ul to each well to be stimulated.
b) Preparation of Complete Lysate • 4×Lysis Buffer is diluted 4 times with ddH2O to prepare 1×Lysis Buffer. • 100×Blocking Reagent is diluted 100 times with 1×Lysis Buffer.
c) Preparation of Detection Liquid • 20×Anti-Phospho-Akt is diluted 20 times with Detection Buffer. • 20×Anti-Akt is diluted 20 times with Detection Buffer.
The compounds are diluted with DMSO, and the working concentration of compounds is 100 times of detection concentration.
Cells in logarithmic growth phase are collected, counted, and resuspended with complete culture medium;
The cell concentration is adjusted to appropriate concentration, and cell suspension is inoculated into 96 well plates at 50 μl per well;
Cells are incubated for more than 4 h in the 5% CO2 incubator at temperature of 37° C., relative humidity of 100%;
Cell plate is removed from the incubator. The cell suspension is aspirated gently, and 50 ul serum-free F12K medium is quickly added, then the cell plate is placed into the incubator to culture overnight.
The compounds are diluted in a linear gradient with DMSO.
0.5 ul compounds is added into the test well, mixed on oscillators, and incubated at room temperature for 2 hours.
Proportioned hEGF solution is added to test well at 50 μl per well, and the final concentration is 100 ng/ml. serum-free medium is added into The negative control well at 50 μl per well.
The solution is mixed on oscillator and incubated at room temperature for 2 hours.
The liquid in 96 well plates is aspirated by multichannel pipette or the supernatant is discarded gently. The proportioned complete lysate is added quickly at 50 μl per well.
The solution is mixed on oscillator and lysed at room temperature for 30 min.
16 μl cell lysate is transferred from the 96 well plates to white low volume 384 well plates, and the proportioned two pairs of detection antibody are added. The solution is mixed on oscillator, and incubated at room temperature for 4 hours to detect the readings.

[2] = target: T1, PI3K α (Homo sapiens, UniProt P42336); assay: Inhibitory activity to PI3K α, PI 3-Kinase (human) HTRF Assay kit; assay type: biochemical; conditions: read-out: % Inhibition Rate to PI3K α
T1 construct: purchased Millipore 14-602
Description: (§1) Study on the inhibitory activity of the compounds of present invention to PI 3κα, PI3κδ and PI3κγ. Two or three concentrations of the compounds are selected to preliminary screening to calculate respectively the activity inhibition rate of the compounds of corresponding concentrations to enzyme, then the compounds with better activity are selected by preliminary screening for IC50 test.
(§2) PI 3-Kinase (human) HTRF™ Assay kit (Cat.33-017, Millipore)
PI 3k α (Cat.14-602, Millipore)
(§3) 4× Reaction Buffer (Cat.33-002, Millipore) is diluted with ddH2O to 1.33×, and 1M DTT is added to make the final concentration as 6.67 mM. For example, 10 μL DTT is added into 500 μL 4× Reaction Buffer, and water is added to 1.5 mL.
(§4) The Test compounds are dissolved with DMSO to 1 mM as storage liquid. 2 μL of each of storage liquid is added into 48 μL ddH2O, to obtain the 40 μM compounds solution containing 4% DMSO. After mixing, 3 μL of each of the solution is added into 27 μL 4% DMSO (in ddH2O) to obtain the 4 μM compounds solution. 5 μL of each dilute solution is added into 384-well plates, then the final concentration of the compounds in the 20 μL final kinase reaction system is 10 μM and 1 μM respectively contained 1% DMSO. The dilution methods of compounds are similar to the preliminary screening in IC50 test.
(§5) 2×PIP2 working fluid is prepared with 1.33× reaction buffer to the final concentration of 20 μM.
The screening concentration of PI 3k α kinase: 8 ng/well,
(§6) Kinase is diluted with 2×PIP2 operating fluid, the concentration of kinase operating fluid is 2 times of screening concentration.
(§7) 10 mM ATP is diluted with 1.33× reaction buffer to 400 μM. The concentration of ATP is 100 μM in 20 μL kinase reaction system.
(§8) Stop A and Stop B are mixed according to the proportion of 3:1, and are placed for 2 hours at room temperature to obtain the stop solution available.
(§9) DM C, DM A and DM B are mixed according to the proportion of 18:1:1, and are placed for 2 hours at room temperature to obtain the detection solution available.

[3] = target: T2, PI3Kδ (Homo sapiens, UniProt O00329); assay: Inhibitory activity to PI3K δ, PI 3-Kinase (human) HTRF Assay kit; assay type: biochemical; conditions: for inhibition at 1 µM / inhibition at 10 µM: read-out: Inhibition rate % to PI3Kδ
T2 construct: purchased Millipore 14-604
Experimental: Study on the inhibitory activity of the compounds of present invention to PI 3κα, PI3κδ and PI3κγ.
as §2
For example, 10 μL DTT is added into 500 μL 4× Reaction Buffer, and water is added to 1.5 mL.
The Test compounds are dissolved with DMSO to 1 mM as storage liquid. 2 μL of each of storage liquid is added into 48 μL ddH2O, to obtain the 40 μM compounds solution containing 4% DMSO. After mixing, 3 μL of each of the solution is added into 27 μL 4% DMSO (in ddH2O) to obtain the 4 μM compounds solution. […]
The screening concentration of PI 3k δ kinase: 2 ng/well,
as §6
The concentration of ATP is 100 μM in 20 μL kinase reaction system.
as §8, §9

[4] = target: T3, PI3 K γ (Homo sapiens, UniProt P48736); assay: Inhibitory activity to PI3K γ, PI 3-Kinase (human) HTRF Assay kit; assay type: biochemical; conditions: for inhibition at 1 µM / inhibition at 10 µM: read-out: Inhibition rate % to PI3 K γ
T3 construct: purchased Biology, Medicilon
Description: as §1, §2
PI 3k γ (Biology, Medicilon)
as §3, §4, §5
The screening concentration of PI 3k γ kinase: 80 ng/well,
as §6, §7, §8, §9

[5] = target: T4, PDGFR β enzyme (Homo sapiens, UniProt P09619); assay: Inhibitory activity to PDGFR β enzyme, HTRF kinEASE TK kit; assay type: biochemical; conditions: for inhibition at 1 µM / inhibition at 10 µM: read-out: Inhibition rate % (PDGFR β)
T4 construct: purchased Invitrogen P3082
Experimental: HTRF kinEASE TK (Cat.62TK0PEC, Cisbio)
PDGFR β enzyme (Cat.P3082, Invitrogen)
1 mL 1×Kinase Buffer includes 200 μL 5×Enzyme buffer, 5 μL 1M MgCl2, 1 μL 1M DTT, 1 μL 1M MnCl2, 20 μL 2500 nM SEB, 773 μL ddH2O.
TK-Substrate and ATP are diluted to 2.5 times of reaction concentration with 1×PDGFR β Kinase Buffer.
5×PDGFR β enzyme working solution is prepared with 1×PDGFR β kinase buffer.
4×Sa-XL665 working solution is prepared with Detection Buffer.
TK-Ab-Cryptate is diluted 100 times with Detection Buffer to use as working solution.

T1 sequence (P42336 whole entry): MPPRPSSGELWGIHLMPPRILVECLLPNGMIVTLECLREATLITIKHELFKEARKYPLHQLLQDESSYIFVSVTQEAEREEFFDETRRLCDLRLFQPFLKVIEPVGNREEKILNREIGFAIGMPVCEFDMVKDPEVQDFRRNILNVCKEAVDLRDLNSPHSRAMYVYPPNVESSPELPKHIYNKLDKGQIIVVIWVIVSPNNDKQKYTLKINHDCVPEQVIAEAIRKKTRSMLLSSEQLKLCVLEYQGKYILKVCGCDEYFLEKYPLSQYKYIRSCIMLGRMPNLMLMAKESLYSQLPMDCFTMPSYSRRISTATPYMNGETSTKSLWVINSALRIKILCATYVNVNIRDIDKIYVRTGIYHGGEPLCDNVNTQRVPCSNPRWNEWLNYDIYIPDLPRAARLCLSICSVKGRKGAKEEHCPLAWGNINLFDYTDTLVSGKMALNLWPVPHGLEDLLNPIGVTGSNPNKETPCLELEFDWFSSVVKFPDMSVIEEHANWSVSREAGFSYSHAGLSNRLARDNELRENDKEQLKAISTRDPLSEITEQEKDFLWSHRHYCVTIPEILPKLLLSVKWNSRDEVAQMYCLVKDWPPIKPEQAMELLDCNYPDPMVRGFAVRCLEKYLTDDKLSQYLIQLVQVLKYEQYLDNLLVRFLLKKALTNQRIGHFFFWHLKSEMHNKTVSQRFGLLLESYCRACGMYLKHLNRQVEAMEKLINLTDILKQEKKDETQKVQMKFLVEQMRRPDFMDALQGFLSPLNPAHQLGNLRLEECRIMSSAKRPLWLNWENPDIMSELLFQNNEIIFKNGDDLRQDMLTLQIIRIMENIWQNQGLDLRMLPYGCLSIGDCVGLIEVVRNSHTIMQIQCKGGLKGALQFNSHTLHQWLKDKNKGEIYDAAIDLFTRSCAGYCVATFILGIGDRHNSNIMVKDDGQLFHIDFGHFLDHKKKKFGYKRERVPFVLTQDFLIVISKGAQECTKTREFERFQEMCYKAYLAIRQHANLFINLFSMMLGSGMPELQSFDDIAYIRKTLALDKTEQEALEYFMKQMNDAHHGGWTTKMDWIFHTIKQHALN
T1 sequence (P27986 whole entry partner): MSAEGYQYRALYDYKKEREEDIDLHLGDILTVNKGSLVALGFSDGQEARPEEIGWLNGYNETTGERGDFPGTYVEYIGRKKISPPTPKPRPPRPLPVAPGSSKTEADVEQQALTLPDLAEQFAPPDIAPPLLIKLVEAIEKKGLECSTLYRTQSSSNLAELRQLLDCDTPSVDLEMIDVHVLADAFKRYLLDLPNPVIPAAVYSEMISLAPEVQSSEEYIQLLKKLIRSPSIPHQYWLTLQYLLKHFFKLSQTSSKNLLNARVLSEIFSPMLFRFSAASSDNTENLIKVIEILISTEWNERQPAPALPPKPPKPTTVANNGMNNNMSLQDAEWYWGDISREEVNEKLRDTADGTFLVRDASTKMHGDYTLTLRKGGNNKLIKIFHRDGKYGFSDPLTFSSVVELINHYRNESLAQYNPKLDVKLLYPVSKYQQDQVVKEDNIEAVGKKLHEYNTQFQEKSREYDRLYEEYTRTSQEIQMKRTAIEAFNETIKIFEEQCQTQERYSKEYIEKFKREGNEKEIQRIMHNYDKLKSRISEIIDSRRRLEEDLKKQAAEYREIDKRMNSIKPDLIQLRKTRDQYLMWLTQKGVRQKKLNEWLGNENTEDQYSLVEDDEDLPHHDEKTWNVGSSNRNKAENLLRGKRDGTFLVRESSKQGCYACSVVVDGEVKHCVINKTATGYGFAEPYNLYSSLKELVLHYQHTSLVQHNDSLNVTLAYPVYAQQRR
T3 sequence (P48736 whole entry): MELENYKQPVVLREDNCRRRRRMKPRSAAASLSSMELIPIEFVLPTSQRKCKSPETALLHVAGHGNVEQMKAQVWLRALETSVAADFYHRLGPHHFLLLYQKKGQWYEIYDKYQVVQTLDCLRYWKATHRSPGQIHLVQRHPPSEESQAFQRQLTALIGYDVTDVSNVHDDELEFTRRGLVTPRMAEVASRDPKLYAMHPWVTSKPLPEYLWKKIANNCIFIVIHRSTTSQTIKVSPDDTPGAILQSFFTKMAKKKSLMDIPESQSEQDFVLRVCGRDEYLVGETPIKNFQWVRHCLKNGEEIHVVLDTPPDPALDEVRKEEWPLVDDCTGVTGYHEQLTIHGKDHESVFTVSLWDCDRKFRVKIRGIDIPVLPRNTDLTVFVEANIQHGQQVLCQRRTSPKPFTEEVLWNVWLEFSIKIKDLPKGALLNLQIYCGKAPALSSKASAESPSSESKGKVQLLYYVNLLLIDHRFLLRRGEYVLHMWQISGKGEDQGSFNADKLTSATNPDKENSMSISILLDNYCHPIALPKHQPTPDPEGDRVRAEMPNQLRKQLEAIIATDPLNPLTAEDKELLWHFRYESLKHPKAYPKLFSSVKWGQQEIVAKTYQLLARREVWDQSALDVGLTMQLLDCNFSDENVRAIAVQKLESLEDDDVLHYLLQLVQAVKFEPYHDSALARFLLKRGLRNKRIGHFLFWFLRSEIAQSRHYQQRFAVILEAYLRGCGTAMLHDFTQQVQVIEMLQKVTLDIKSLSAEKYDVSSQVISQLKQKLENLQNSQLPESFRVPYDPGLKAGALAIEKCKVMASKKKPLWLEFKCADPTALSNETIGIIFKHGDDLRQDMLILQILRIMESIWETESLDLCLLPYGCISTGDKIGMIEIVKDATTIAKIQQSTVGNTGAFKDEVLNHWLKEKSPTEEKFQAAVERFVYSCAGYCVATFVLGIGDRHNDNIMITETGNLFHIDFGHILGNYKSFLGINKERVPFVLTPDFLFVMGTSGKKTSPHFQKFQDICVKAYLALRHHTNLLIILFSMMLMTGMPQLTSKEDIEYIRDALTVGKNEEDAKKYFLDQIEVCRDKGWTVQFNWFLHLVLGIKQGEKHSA
T2 sequence (O00329 whole entry): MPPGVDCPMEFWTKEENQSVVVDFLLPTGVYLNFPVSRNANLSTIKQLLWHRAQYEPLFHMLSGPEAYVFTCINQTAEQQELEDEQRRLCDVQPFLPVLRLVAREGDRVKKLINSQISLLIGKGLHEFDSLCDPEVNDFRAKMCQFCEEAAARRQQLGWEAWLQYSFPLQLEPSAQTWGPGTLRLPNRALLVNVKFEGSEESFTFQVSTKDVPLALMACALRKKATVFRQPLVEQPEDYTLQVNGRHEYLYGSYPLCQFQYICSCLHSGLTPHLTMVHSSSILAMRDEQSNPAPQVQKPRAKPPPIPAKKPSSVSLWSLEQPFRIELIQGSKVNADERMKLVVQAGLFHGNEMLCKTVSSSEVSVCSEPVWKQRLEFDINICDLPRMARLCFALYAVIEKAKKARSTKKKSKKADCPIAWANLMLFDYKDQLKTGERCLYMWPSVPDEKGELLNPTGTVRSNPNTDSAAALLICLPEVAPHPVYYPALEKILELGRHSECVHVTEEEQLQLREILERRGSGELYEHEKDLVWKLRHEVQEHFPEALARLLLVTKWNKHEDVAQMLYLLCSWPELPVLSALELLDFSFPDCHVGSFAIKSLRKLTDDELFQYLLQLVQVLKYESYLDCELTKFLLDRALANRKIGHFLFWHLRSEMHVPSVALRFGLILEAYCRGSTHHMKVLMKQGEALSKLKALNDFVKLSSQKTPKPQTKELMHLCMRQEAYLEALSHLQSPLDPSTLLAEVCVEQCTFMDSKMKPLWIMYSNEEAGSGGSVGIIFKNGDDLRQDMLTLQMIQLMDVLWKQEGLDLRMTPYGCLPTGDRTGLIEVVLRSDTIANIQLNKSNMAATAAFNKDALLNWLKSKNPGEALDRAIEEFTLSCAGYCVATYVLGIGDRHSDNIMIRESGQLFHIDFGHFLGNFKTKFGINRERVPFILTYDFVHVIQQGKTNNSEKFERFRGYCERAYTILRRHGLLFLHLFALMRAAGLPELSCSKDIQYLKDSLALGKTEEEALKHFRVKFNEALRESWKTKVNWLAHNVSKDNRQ
T2 sequence (P27986 whole entry partner): as the sequence (P27986 whole entry partner) above
T4 sequence (P09619 33-1106): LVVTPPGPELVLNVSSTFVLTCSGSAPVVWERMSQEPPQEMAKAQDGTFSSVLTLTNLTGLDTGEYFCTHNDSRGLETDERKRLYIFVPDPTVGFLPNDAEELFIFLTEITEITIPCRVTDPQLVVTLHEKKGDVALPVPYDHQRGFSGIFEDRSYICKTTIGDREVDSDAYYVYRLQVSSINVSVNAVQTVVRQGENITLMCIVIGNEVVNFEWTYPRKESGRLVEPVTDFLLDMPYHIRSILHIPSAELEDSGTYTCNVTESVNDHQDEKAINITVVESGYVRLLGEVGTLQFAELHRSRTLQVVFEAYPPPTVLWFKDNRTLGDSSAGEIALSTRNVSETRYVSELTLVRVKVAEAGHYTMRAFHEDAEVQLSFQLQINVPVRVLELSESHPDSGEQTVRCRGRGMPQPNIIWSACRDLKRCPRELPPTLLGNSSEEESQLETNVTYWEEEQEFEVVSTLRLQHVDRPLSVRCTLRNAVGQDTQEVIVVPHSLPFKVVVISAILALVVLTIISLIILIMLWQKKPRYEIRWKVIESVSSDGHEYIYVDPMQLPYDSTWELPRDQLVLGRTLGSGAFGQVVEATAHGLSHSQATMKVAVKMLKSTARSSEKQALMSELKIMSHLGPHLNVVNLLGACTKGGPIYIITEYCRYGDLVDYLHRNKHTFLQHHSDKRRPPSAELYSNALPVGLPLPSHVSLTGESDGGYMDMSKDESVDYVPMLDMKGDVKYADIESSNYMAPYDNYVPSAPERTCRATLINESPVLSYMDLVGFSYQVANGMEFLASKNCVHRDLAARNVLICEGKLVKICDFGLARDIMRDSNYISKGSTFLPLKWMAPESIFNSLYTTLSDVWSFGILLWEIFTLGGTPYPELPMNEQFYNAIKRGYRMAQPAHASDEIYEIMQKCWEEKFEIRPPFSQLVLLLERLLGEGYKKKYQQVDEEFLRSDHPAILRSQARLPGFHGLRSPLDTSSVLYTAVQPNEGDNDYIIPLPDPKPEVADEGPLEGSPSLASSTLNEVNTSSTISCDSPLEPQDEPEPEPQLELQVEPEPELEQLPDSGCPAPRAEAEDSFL

IC50 [1] [nM]	inhibition at 1 µM [2] [%]	inhibition at 10 µM [2] [%]	inhibition at 1 µM ([3]; 1 μM (Table 7)) [%]	inhibition at 10 µM ([3]; 10 μM (Table 7)) [%]	inhibition at 1 µM ([4]; 1 μM) [%]	inhibition at 10 µM ([4]; 10 μM) [%]	inhibition at 1 µM ([5]; 1 μM) [%]	inhibition at 10 µM ([5]; 10 μM) [%]	Inhibition rate % to PI3 K γ ([4]; 1 μM) [%]	Inhibition rate % to PI3 K γ ([4]; 10 μM) [%]	Inhibition rate % (PDGFR β) ([5]; 1 μM) [%]	Inhibition rate % (PDGFR β) ([5]; 10 μM) [%]	Inhibition rate % to PI3Kδ ([3]; 1 μM (Table 7), 1 µM) [%]	Inhibition rate % to PI3Kδ ([3]; 10 μM (Table 7), 10 µM) [%]	Compound
276	55.3	82.2	68	87.5	–	–	–	–	–	–	–	–	–	–	c1ccc(-c2ccnc3ccc(Nc4nc(N5CCCC5)c5nc[nH]c5n4)cc23)cc1 [MED1007-103, 4-phenyl-N-(6-(pyrrolidine-1-yl)-9H-purine-2-yl)quinoline-6-amine]
–	26.6	62.5	41	51.6	5.26	10.8	33.4	73	–	–	–	–	–	–	NCCNc1nc(Nc2ccc3nccc(-c4ccccc4)c3c2)nc2[nH]cnc12 [MED1007-70, N6-(2-aminoethyl 1)-N2-(4-phenylquinoline-6-yl)-9H-purine-2,6-diamine]
–	7.74	51.9	20.7	42.3	-0.02	10.8	18.7	11.7	–	–	–	–	–	–	COCCNc1nc(Nc2ccc3nccc(-c4ccccc4)c3c2)nc2[nH]cnc12 [MED1007-68, N6-(2-methoxyethyl)-N2-(4-phenylquinoline-6-yl)-9H-purine-2,6-diamine]

Further lines, the compound ahead of its results:

Compound	IC50 [1] [nM]	inhibition at 1 µM [2] [%]	inhibition at 10 µM [2] [%]	inhibition at 1 µM ([3]; 1 μM (Table 7)) [%]	inhibition at 10 µM ([3]; 10 μM (Table 7)) [%]	inhibition at 1 µM ([4]; 1 μM) [%]	inhibition at 10 µM ([4]; 10 μM) [%]	inhibition at 1 µM ([5]; 1 μM) [%]	inhibition at 10 µM ([5]; 10 μM) [%]	Inhibition rate % to PI3 K γ ([4]; 1 μM) [%]	Inhibition rate % to PI3 K γ ([4]; 10 μM) [%]	Inhibition rate % (PDGFR β) ([5]; 1 μM) [%]	Inhibition rate % (PDGFR β) ([5]; 10 μM) [%]	Inhibition rate % to PI3Kδ ([3]; 1 μM (Table 7), 1 µM) [%]	Inhibition rate % to PI3Kδ ([3]; 10 μM (Table 7), 10 µM) [%]
COc1ccc(-c2ccnc3ccc(Nc4nc(NC5CC5)c5nc[nH]c5n4)cc23)cc1 [MED1007-63, N6-cyclopropyl-N2-(4-(4-methoxyphenyl)quinoline-6-yl)-9H-purine-2,6-diamine]	62.2	–	–	37.5	122	0.96	14.7	-0.31	28	–	–	–	–	–	–
c1cnc2ccc(Nc3nc(OC4CCCC4)c4nc[nH]c4n3)cc2c1 [MED1007-35, N-(6-cyclopentyloxy-9H-purine-2-yl) quinoline-6-amine]	74.5	–	–	44.4	87.4	19.2	53	54.8	99	–	–	–	–	–	–
c1ccc(-c2ccnc3ccc(Nc4nc(NC5CC5)c5ncn(C6CCNCC6)c5n4)cc23)cc1 [MED1007-66, N6-cyclopropyl-N2-(4-phenylquinoline-6-yl)-9-(piperidine-4-yl)-9H-purine-2,6-diamine]	–	-2.28	-4.35	4.75	19.8	1.48	-2.46	17	14.5	–	–	–	–	–	–
Fc1ccc(-c2ccnc3ccc(Nc4nc(NC5CCC5)c5nc[nH]c5n4)cc23)cc1 [MED1007-72, N6-cyclobutyl-N2-(4-(4-fluorophenyl)quinoline-6-yl)-9H-purine-2,6-diamine]	–	8.78	65.9	33.9	89.5	2.15	42.7	7.25	2.5	–	–	–	–	–	–
OCCCNc1nc(Nc2ccc3nccc(-c4ccccc4)c3c2)nc2[nH]cnc12 [MED1007-73, 3-(2-(4-phenylquinoline-6-ylamino)-9H-purine-6-ylamino) propyl-1-ol]	–	29.7	66.1	6.41	66.5	5.49	28.4	17	35	–	–	–	–	–	–
c1ccc(-c2ccnc3ccc(Nc4nc(NC5CC5)c5nc[nH]c5n4)cc23)cc1 [MED1007-31, N6-cyclopropyl-N2-(4-phenylquinoline-6-yl)-9H-purine-2,6 diamine]	112	–	–	–	–	–	–	–	–	11.33	52.59	13.84	26.16	40.16	97.80
c1cnc2ccc(Nc3nc(OC4CCC4)c4nc[nH]c4n3)cc2c1 [MED1007-97]	–	56.3	114	72.3	88.5	74.7	77	98.4	99.5	–	–	–	–	–	–
